Experimental data from ChEMBL document CHEMBL5120918, “Marinoquinolones and Marinobactoic Acid: Antimicrobial and Cytotoxic ortho-Dialkylbenzene-Class Metabolites Produced by a Marine Obligate Gammaproteobacterium of the Genus Marinobacterium” (J Nat Prod, 2022).
Converted amounts (≈) assume the structure as drawn.

What was measured:
[1] = tested on: Agrobacterium tumefaciens; experiment: Antimicrobial activity against Rhizobium radiobacter NBRC14554 assessed as inhibition of bacterial growth incubated for 48 hrs by liquid microculture method; type: functional
[2] = tested on: Colletotrichum gloeosporioides; experiment: Antimicrobial activity against Glomerella cingulata NBRC5907 assessed as inhibition of […] growth incubated for 48 hrs by liquid microculture method; type: functional
Escherichia coli = experiment: Antimicrobial activity against Escherichia coli NIHJ JC-2 assessed as inhibition of bacterial growth incubated for 48 hrs by liquid microculture method; type: functional
Staphylococcus aureus = experiment: Antimicrobial activity against Staphylococcus aureus FDA209P JC-1 assessed as inhibition of bacterial growth incubated for 48 hrs by liquid microculture method; type: functional
P388 = experiment: Cytotoxicity against mouse P388 cells assessed as cell growth inhibition measured after 48 hrs by MTT assay; type: functional, cell-based; settings: P388, 48 h
Trichophyton rubrum = experiment: Antimicrobial activity against Trichophyton rubrum NBRC5467 assessed as inhibition of […] growth incubated for 48 hrs by liquid microculture method; type: functional
Kocuria rhizophila = experiment: Antimicrobial activity against Kocuria rhizophila ATCC9341 assessed as inhibition of bacterial growth incubated for 48 hrs by liquid microculture method; type: functional
Candida albicans = experiment: Antimicrobial activity against Candida albicans NBRC0197 assessed as inhibition of […] growth incubated for 48 hrs by liquid microculture method; type: functional

| MIC [1] | MIC [2] | MIC (Escherichia coli) | MIC (Staphylococcus aureus) | MIC (Trichophyton rubrum) | MIC (Kocuria rhizophila) | MIC (Candida albicans) | SMILES | IC50 (P388) |
| --- | --- | --- | --- | --- | --- | --- | --- | --- |
| 50 µg/mL (≈ 146 µM) | 25 µg/mL (≈ 73.2 µM) | > 100 µg/mL | 25 µg/mL (≈ 73.2 µM) | 13 µg/mL (≈ 38.1 µM) | 13 µg/mL (≈ 38.1 µM) | > 100 µg/mL | C/C=C/c1ccccc1C/C=C/C=C\Cc1cc(=O)c2ccccc2[nH]1 | 10 µM |
| 25 µg/mL (≈ 103 µM) | 6.3 µg/mL (≈ 26 µM) | > 100 µg/mL | 6.3 µg/mL (≈ 26 µM) | 13 µg/mL (≈ 53.6 µM) | 13 µg/mL (≈ 53.6 µM) | > 100 µg/mL | C/C=C/c1ccccc1C/C=C/C=C\CC(=O)O | 1.2 µM |
| 50 µg/mL (≈ 140 µM) | 13 µg/mL (≈ 36.4 µM) | > 100 µg/mL | 13 µg/mL (≈ 36.4 µM) | 6.3 µg/mL (≈ 17.6 µM) | 6.3 µg/mL (≈ 17.6 µM) | > 100 µg/mL | C/C=C/c1ccccc1/C=C/C=C/C(O)Cc1cc(=O)c2ccccc2[nH]1 (racemic) | 7.3 µM |
| – | 1.3 µg/mL (≈ 1.41 µM) | – | – | 0.78 µg/mL (≈ 0.844 µM) | – | 0.78 µg/mL (≈ 0.844 µM) | C[C@@H]1[C@H](O)[C@@H](C)/C=C/C=C/C=C/C=C/C=C/C=C/C=C/[C@H](O[C@@H]2O[C@H](C)[C@@H](O)[C@H](N)[C@@H]2O)C[C@@H]2O[C@](O)(C[C@@H](O)C[C@@H](O)[C@H](O)CC[C@@H](O)C[C@@H](O)CC(=O)O[C@H]1C)C[C@H](O)[C@H]2C(=O)O [AMPHOTERICIN B] | – |
| – | – | – | – | – | – | – | COc1cccc2c1C(=O)c1c(O)c3c(c(O)c1C2=O)C[C@@](O)(C(=O)CO)C[C@@H]3O[C@H]1C[C@H](N)[C@H](O)[C@H](C)O1 [DOXORUBICIN] | 0.08 µM |
